Results: publication PMC10564737, “Structure-based design of a phosphotyrosine-masked covalent ligand targeting the E3 ligase SOCS2” (Nature Communications, 2023)
pKi: −log10 of the molar value. “And” between values parts separate entries of the source, which are not always exact repeats. Identical values can stand only once. Like-named read-outs stand apart in the source and are kept apart here.

Molecular target: T1, SBC2 (Homo sapiens, UniProt O14508)
T1 construct: SOCS2 (amino acids 32–198); His6 (N, cleaved yes); made in house; host or cells: E. coli BL21(DE3)
Assay: Covalent fluorescence polarization (FP) probe displacement assay
Type: binding
Design: Michaelis-Menten best-fit value Vmax / Michaelis-Menten best-fit Vmax: unit not given here
Settings: for Anisotropy: Cycle 12 (55 min)
From the text: With the specific covalent modification of Cys111 established, we decided to fully characterize MN551 as a covalent SOCS2 inhibitor. […] (Fig. 2g, h, Supplementary Fig. 9). Due to the covalent nature of the competing inhibitor, a time-dependent reduction in the fraction of protein-bound probe is observed. […] This value illustrates reasonable specificity for a covalent inhibitor, with nonetheless scope for future optimization. In addition to characterizing the kinetic covalency parameters, we have also assessed the stability of the MN551 by monitoring its reactivity (half-life >70 min) with reduced glutathione (GSH) (Supplementary Fig. 10)[35].
To monitor the SBC2-ligand binding kinetics we designed a fluorescein-labeled small-molecule probe - compound 26. The fluorescence polarization (anisotropy) of a threefold serial dilution of 50 µM SBC2 in 10 nM of the probe in 100 mM HEPES pH 7.5, 50 mM NaCl, 0.5 mM TCEP, 2% DMSO was measured to determine the KL (Supplementary Fig. 9A) (BMG Labtech PHERAstar – firmware v1.33). Protein titration and the curves were fitted using GraphPad Prism 9, using one-site fitting models to determine the probe binding constant, KL. Samples were run in triplicate in 384 well plates, using a total volume per well of 16 μL. The bound fraction of the probe is measure using the equation:1 Fb=Af−A/Af−Ab Where,
A time-dependent reduction in probe anisotropy were measured for a 2-fold serial dilution of […] compound MN551 in 10 nM probe +300 μM SBC2. To determine the initial reversible binding affinity, the initial bound fraction of the probe at time = 0, Fbo (the y-intercept in Fb v/s Time plot, Supplementary Fig. 9B) was plotted against MN551 concentration, and the obtained IC50 is then converted to Ki (Supplementary Fig. 9C)[17]. The slope from Fb versus time graph when divided by Fbo gives rate of covalency, kobs. A plot of kobs v/s MN551 concentration using Michaelis–Menten model of GraphPad Prism 9, provides the parameters kinact (maximum potential rate of inactivation) and KI (concentration of MN551 at which kobs = kinact/2) (Supplementary Fig. 9D, E).
The observed first-order rate constant, kobs is related to KI and kinact by the equation:2 kobs=kinactI/KI+I
At [I]«[KI] the above equation is converted to3 […]
The slope from the plot of kobs against concentration of MN551 gives us the covalent efficiency parameter kinact/KI (Supp Fig. 9F)[30],[33].

[1] = MN551 1562.5 nM, Cycle 6 (25 min)
[2] = MN551 3125 nM, Cycle 6 (25 min)
[3] = MN551 6250 nM, Cycle 6 (25 min)
[4] = MN551 12500 nM, Cycle 6 (25 min)
[5] = MN551 25000 nM, Cycle 6 (25 min)
[6] = MN551 50000 nM, Cycle 6 (25 min)
[7] = linear fit through origin, 14 X values

T1 sequence (O14508 32-198): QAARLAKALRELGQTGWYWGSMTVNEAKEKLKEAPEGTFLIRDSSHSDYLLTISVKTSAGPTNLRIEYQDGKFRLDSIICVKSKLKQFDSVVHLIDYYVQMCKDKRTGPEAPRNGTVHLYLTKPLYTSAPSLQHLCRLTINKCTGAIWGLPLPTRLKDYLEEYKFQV
T1 sequence (Q15370 1-104 partner limits assumed): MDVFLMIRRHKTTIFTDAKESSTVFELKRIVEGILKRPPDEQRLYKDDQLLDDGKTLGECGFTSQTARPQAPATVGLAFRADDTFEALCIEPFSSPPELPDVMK
T1 sequence (Q15369 17-112 partner limits assumed): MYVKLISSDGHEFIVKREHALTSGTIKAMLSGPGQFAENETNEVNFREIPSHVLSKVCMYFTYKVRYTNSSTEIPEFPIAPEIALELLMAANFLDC

O=C(CCl)Nc1cccc(CNC(=O)[C@H](Cc2ccc(OP(=O)(O)O)cc2)NC(=O)Cc2ccc(F)cc2)c1 [MN551]
Anisotropy based on Raw Data (485) (MN551 1562.5 nM, Cycle 7 (30 min)): 249.9 and 251.8 and 246.3
Fb, fraction bound (MN551 1562.5 nM, Cycle 2 (5 min)): 0.7824 and 0.8178 and 0.7856
Fb, fraction bound (MN551 1562.5 nM, Cycle 3 (10 min)): 0.7647 and 0.786 and 0.7702
Anisotropy data 485,520,520 [1]: 247 and 253 and 251
Fb [1]: 0.6849 and 0.7296 and 0.7125
Anisotropy (MN551 1562.5 nM): 232.7 and 235.9 and 233.9
Anisotropy based on Raw Data (485) (MN551 3125 nM, Cycle 7 (30 min)): 236.7 and 234.8 and 231.2
Fb, fraction bound (MN551 3125 nM, Cycle 3 (10 min)): 0.6544 and 0.6694 and 0.6412
Anisotropy data 485,520,520 [2]: 232.2 and 235.2 and 237.3
Fb [2]: 0.5431 and 0.5648 and 0.5878
Anisotropy (MN551 3125 nM): 219.6 and 215.4 and 213.4
Anisotropy based on Raw Data (485) (MN551 6250 nM, Cycle 7 (30 min)): 210.9 and 211.2 and 208.6
Fb, fraction bound (MN551 6250 nM, Cycle 3 (10 min)): 0.4366 and 0.4454 and 0.4414
Anisotropy data 485,520,520 [3]: 214.2 and 214.4 and 216.1
Fb [3]: 0.3707 and 0.3722 and 0.3949
Anisotropy (MN551 6250 nM): 197.5 and 192.2 and 194.7
Anisotropy data 485,520,520 (MN551 6250 nM, Cycle 19 (90 min), n=1): 182.4 and 180.6 and 182.5
Anisotropy based on Raw Data (485) (MN551 12500 nM, Cycle 7 (30 min)): 198.9 and 196.3 and 194.4
Fb, fraction bound (MN551 12500 nM, Cycle 3 (10 min)): 0.2711 and 0.337 and 0.3633
Anisotropy data 485,520,520 [4]: 197.3 and 198 and 197.2
Fb [4]: 0.2088 and 0.2204 and 0.2229
Anisotropy (MN551 12500 nM): 181.6 and 186.4 and 190.6
Anisotropy data 485,520,520 (MN551 12500 nM, Cycle 19 (90 min), n=1): 175.8 and 177.4 and 179.3
Anisotropy based on Raw Data (485) (MN551 25000 nM, Cycle 7 (30 min)): 184.9 and 182.9 and 181.5
Anisotropy based on Raw Data (485) (MN551 25000 nM, Cycle 8 (35 min)): 180.7 and 181.6
Fb, fraction bound (MN551 25000 nM, Cycle 3 (10 min)): 0.1627 and 0.184 and 0.1553
Anisotropy data 485,520,520 [5]: 189.8 and 187 and 188.6
Fb [5]: 0.137 and 0.1185 and 0.1447
Anisotropy (MN551 25000 nM): 177.2 and 177.1 and 175
Anisotropy data 485,520,520 (MN551 25000 nM, Cycle 19 (90 min), n=1): 168.3 and 171.4 and 169.1
Anisotropy based on Raw Data (485) (MN551 50000 nM, Cycle 7 (30 min)): 181.6 and 178.4 and 180.2
Anisotropy based on Raw Data (485) (MN551 50000 nM, Cycle 8 (35 min)): 179.2 and 176.8 and 178.5
Fb, fraction bound (MN551 50000 nM, Cycle 3 (10 min)): 0.08456 and 0.09836 and 0.08356
Anisotropy data 485,520,520 [6]: 185.8 and 181.1 and 183.7
Fb [6]: 0.09866 and 0.06389 and 0.1001
Anisotropy (MN551 50000 nM): 173.6 and 173.5 and 174.7
Anisotropy data 485,520,520 (MN551 50000 nM, Cycle 19 (90 min), n=1): 167.6 and 168.6 and 168.7
Anisotropy based on Raw Data (485) (MN551 100000 nM, Cycle 7 (30 min)): 179.4 and 180.3 and 179.5
Anisotropy based on Raw Data (485) (MN551 100000 nM, Cycle 8 (35 min)): 176.4 and 175.9
Fb, fraction bound (MN551 100000 nM, Cycle 3 (10 min)): 0.06066 and 0.07013 and 0.06449
Anisotropy data 485,520,520 (MN551 100000 nM, Cycle 6 (25 min)): 179.9 and 183.4
Anisotropy (MN551 100000 nM): 176.4 and 173.8 and 174.3
Anisotropy data 485,520,520 (MN551 100000 nM, Cycle 19 (90 min), n=1): 171.6 and 169.1
pKi (Mean, n = 3, time = 0, read-out: Ki): 5.95
pKi (calculated from IC50 at time = 0, read-out: Ki at time = 0 (initial reversible binding affinity)): 5.96
Michaelis-Menten best-fit value Vmax (experiment n=1, 95% CI 0.01343 to 0.01564): 0.0145
Linear fit best-fit value Slope (experiment n=1, Y = 3.349e-006*X + 0.000, 95% CI 3.026e-006 to 3.671e-006): 3.349e-6
Slope of linear regression (Equation Y = slope*X + 0.000), covalent efficiency [7]: Y = 3.866e-006*X + 0.000
Slope, 95% Confidence Intervals [7]: 3.764e-006 to 3.969e-006
kinact (maximum potential rate of inactivation) (mean ± SEM, n = 3): 2.1 × 10^–4 s^-1
kinact (mean ± SEM, n = 3, read-out: kinact (maximum potential rate of inactivation)): 0.0125 min⁻¹
kinact/KI (covalent efficiency) (mean, n = 3): 57.53 M⁻¹ s⁻¹
Ki (mean, n = 3, read-out: Ki): 3560.67 nM
kinact (mean, n = 3, read-out: Kinact (converted)): 0.0153 min⁻¹
kinact/KI (mean, n = 3, read-out: kinact/KI (covalent efficiency)): 3480 M⁻¹ min⁻¹
Michaelis-Menten Vmax, 95% CI (profile likelihood) (n=2 experiment): 0.01305 to 0.01515
Michaelis-Menten best-fit value Vmax (n=2 experiment, R squared 0.9902): 0.01406
kinact (n=2 experiment, from Michaelis-Menten fit (Vmax), read-out: Kinact (min-1) (converted)): 0.0141 min⁻¹
kinact (n=2 experiment, from Michaelis-Menten fit (Vmax), read-out: Kinact (s-1)): 0.014 min⁻¹
kinact/KI (read-out: Slope: Kinact/Ki (M-1min-1), FP competition assay to evaluate MN551 covalent efficiency, replicate n=3, Michaelis-Menten fit): 3690 M⁻¹ min⁻¹
Michaelis-Menten best-fit Vmax (replicate n=3, 95% CI 0.01570 to 0.01942): 0.01742
Linear fit 1/slope (replicate n=3, Y-intercept 0): 258642
Linear fit best-fit Slope (replicate n=3, Y-intercept 0, MN551 below Ki titration): 3.866e-6
Kinact, individual replicates n1-n3 (single replicates): 0.014 min⁻¹
Kinact/KI, individual replicates n1-n3 (single replicates): 52.40 M⁻¹ s⁻¹
kinact (single replicates, read-out: Kinact, individual replicates n1-n3 (converted)): 0.0174 min⁻¹
kinact/KI (single replicates, read-out: Kinact/KI, individual replicates n1-n3): 3860 M⁻¹ min⁻¹
